SMILES strings stand for the structures. Entries after “also recorded” stand apart in the source; their conditions may differ.

Data set [1] relates to families of European domestic bees. Description: 1st test in hives: morpho-productive characters. Type of data set: in vivo, Apis mellifera carpatica. The conditions noted are these: for Power of the bee family / Prolificity of the queen / Quantity of honey at the first harvest / Quantity of honey at the first harvest, change versus batch I: overall dose 2 mg per colony; for Power of the bee family / Prolificity of the queen / Quantity of honey at the first harvest: spring feeding, 10 hives; for Quantity of honey at the first harvest, change versus batch I: value in brackets; for Effects on the prolificity of the queen and the amount of honey collected compared to PPh4-Mo2O4-EDTA: 1st test, 2 mg per colony. On the procedure:
Biological field tests were performed on families of European domestic bees of the species Apis mellifera […] experimental apiary located in the […] forestry district (Republic of Moldova). Feeding with the complex of the invention took place in spring. The biological tests were monitored up to the month of September. To administer the compounds to the bees, a very small amount of bioactive substance was added to two types of sugary feeding products for bees: candy in the form of a paste (70% sucrose, 30% honey) or syrup (50% sucrose, 50% water). The bees were fed by adding the candy/syrup to the feeder located in the inner upper part of the hive. The volume of syrup was adjusted based on the number of bee frames at the initial time, more precisely 200 g of candy per frame and 100 mL of syrup per frame, that is 2 kg of candy and 1 L of syrup per hive of 10 frames. For the first feeding step, candy in the form of a paste was only given once. […] From the start of the test to the end (after the second harvest), all the bees were monitored for several key morpho-producing parameters that reflect the development level of the colony and the vital aspects of the bees. The parameters studied are: the prolificity of the queen (fertility), the power of the colonies, the production of honey and the production of wax. These parameters were monitored in line with the zootechnical standards concerning the assessment of bee families, breeding and certification of beekeeping parental material approved by government decision No. 306 dated Apr. 28, 2011 of the Republic of Moldova. The production of honey (in kg) was determined for each family of bees by adding the amount of honey produced (honey from supers), extracted during the harvest season, to the amount of honey built up in the honeycomb (brood chamber) and left as food for the bees for the winter period (brood honey). The amount of honey produced will be determined for each family, for each extraction, by weighing the frames/honeycomb before and after extraction (with an accuracy of 0.1 kg), the weight difference being the quantity of honey produced that was extracted. The amount of honey left in the honeycomb to feed the bees was determined at the autumn visit (September), by weighing the honey frames and deducting (from their total weight) the total weight of the standard honeycomb frames; for […] type frames (435×300 mm)-0.6 kg, for Langstroth frames (435×230 mm)-0.5 kg. The power of the bee colony represents the number of bees present in the honeycomb at the time of the assessment. The assessment is performed three times per year: at the spring visit (March-April), at the end of spring (20-31 May) and at the visit in autumn (September). After these three assessments, the average power of the bee family is determined. The amount of bees (kg) is determined by multiplying the number of intervals between the frames, uniformly occupied by the bees, by the coefficient 0.25 for the standard […] frame (435×300 mm) and by 0.2 for the standard Langstroth frame (435×230 mm). The prolificity of the queen (eggs/24 hours) is determined during the visit at the end of the spring (20-31 May) by dividing the number of cells with the brood by 12 (duration of development of the brood, days), the number of eggs laid in 24 hours. The number of cells in the honeycomb is determined using the Netz frame by measuring the number of squares (5×5 cm) occupied by the brood, which is multiplied by 100, to give the total number of cells with the brood covered. The molecules tested, their concentration in solution and their annual overall doses are listed below: • 1. […] The concentration of the complex in the syrup: 1.5×10^-7 mol/L. Overall and annual product dose: 2 mg of complex per colony • 2. […] The concentration of the complex in syrup: 3.0×10^-7 mol/L. Overall and annual product dose: 2 mg of complex per colony • 3. […] Overall and annual product dose: 2 mg of complex per colony • 4. […]

Another data set concerns bee colonies. Description: 3rd test in the hives: winter mortality of colonies, California 2019. The following applies: single dose 4 mg per hive, 25-28 Oct. 2019, counted Jan. 7, 2020; 26 of 75 lost; control hives 61.8%. Type of data set: in vivo, bees. The procedure:
A treatment campaign was carried out in the autumn-winter in apiaries located in California, near San Francisco. This region is particularly vulnerable to winter mortality of bee colonies which can reach as high as 80% in some years.
151 hives, distributed over 6 different apiaries in California to the south of San Francisco were selected. The bees were of different types: Wildflower (VSH-Italian), Beeweaver, Carniolan Californian Bee (Pope Canyon), Californian bee Tom and Italian Californian bee (Sam).
The hives were Langstroth 2 body type hives (15 frames compared to 10 for Dadant hives in Europe).
2019 by syringe in the form of a concentrated aqueous solution (8 g/L) in a sugar syrup into the feeding frame. 0.5 mL of this solution was introduced and dispersed in 3.5 liters of sugar syrup at 65% sugar and introduced into the hive. […] The control hives only received sugar syrup.
The surviving colonies were counted on Jan. 7, 2020. A total of 73 colonies out of the initial 151 died, that is an overall mortality of 48.3%.

Data set [2] has as its system HeLa, BxPC-3 and MDCK cells. The following applies: BxPc-3 and HeLa. From the text: For cell culture, human cervical epithelial cells of the HeLa line, human epithelial pancreatic adenocarcinoma cells of the BxPC-3 line and healthy Madin-Darby canine kidney epithelial cells of the MDCK line were used in this study. The Resazurin cell proliferation test was applied according to the literature (S. Anoopkumar-Dukie, J. B. Carey, T. Conere, E. O'Sullivan, F. N. van Pelt, A. Allshire, Br J Radiol 2005, 78, 945, DOI: 10.1259/bjr/54004230). As an indicator of the effectiveness of the experimental compounds on cell proliferation, the median inhibitory concentration (IC50) was used. The lower the IC50 value, the higher the activity (in this case, the cytotoxicity).

Another data set has as its system bees. Description: Toxicity study on bees (lifespan of caged bees). The format is in vivo. The procedure:
Fifty newly hatched bees (age=1 day) were placed in a special cage with a wax strip, water and food, and were kept in the laboratory oven at a constant temperature of 33° C. and 50% humidity. […] The consumption of water and food was checked every day. Dead bees were counted and removed. For statistical reasons, the experiments were repeated up to 3 times if necessary.

The test system of another data set is bee families. The following applies: feeding method of MD4438; cited from earlier work.

On to `CC(=O)[O-].[Li+]` [Li—Ac, LiCH3COO·H2O, reference compound], for which, in data set [1], the “Power of the bee family” value is given as 98.3 % relative to batch I; the “Prolificity of the queen” value is given as 108.8 % relative to batch I; the “Quantity of honey at the first harvest” value is 122.9 % relative to batch I; the “Quantity of honey at the first harvest, change versus batch I” value (shortened to “Quantity of honey … change versus batch I”) is “+22.9%”.

Take `O.O.O.O.O.O.O=C([O-])CN(CCN(CC(=O)[O-])CC(=O)[O-])CC(=O)[O-].[Li+].[Li+].[O]=[Mo+]12[O][Mo+]1(=[O])[O]2` [Li—Mo2O4-EDTA, Li2[Mo2O4 (EDTA)]·6H2O]: in the data set with bee colonies, the “Winter mortality of colonies” value was found to be 34.7%. Further, in data set [1], the “Effects on the prolificity of the queen and the amount of honey collected compared to PPh4-Mo2O4-EDTA” value is given as “higher effects”; the “Power of the bee family” value is 103.3 % relative to batch I; the “Prolificity of the queen” value is listed as 111.7 % relative to batch I; the “Quantity of honey at the first harvest” value is listed as 143.1 % relative to batch I. The “Quantity of honey … change versus batch I” value in data set [1] was “+43.1%”. The “Cytotoxicity, conclusion from Table 1” value in data set [2] is “no cytotoxicity”.

For the molecule `O.O.O.O.O.O=C([O-])CN(CCN(CC(=O)[O-])CC(=O)[O-])CC(=O)[O-].[Na+].[Na+].[O]=[Mo+]12[O][Mo+]1(=[O])[O]2` [Na—Mo2O4-EDTA, Na2[Mo2O4 (EDTA)]·5H2O], in data set [1], the “Effects on the prolificity of the queen and the amount of honey collected compared to PPh4-Mo2O4-EDTA” value is “higher effects”; the “Power of the bee family” value is on record as 101.2 % relative to batch I; the “Prolificity of the queen” value is 113.3 % relative to batch I; the “Quantity of honey at the first harvest” value was 149.9 % relative to batch I. Also, the “Quantity of honey … change versus batch I” value in data set [1] is on record as “+49.9%”. In addition, the “Cytotoxicity, conclusion from Table 1” value in data set [2] is given as “no cytotoxicity”. Besides, in the data set on bees (2 mg/L in sucrose solution, p>0.05, χ2=3.36), the “Survival of caged bees versus control group” value is “no significant difference; also recorded: does not induce bee mortality”. For the same molecule, in the data set with bees (20 mg/L in sucrose solution, p>0.05, χ2=0.04), the “Survival of caged bees versus control group” value is “no significant difference; also recorded: does not induce bee mortality”.

As to `O=C([O-])CN(CCN(CC(=O)[O-])CC(=O)[O-])CC(=O)[O-].[O]=[Mo+]12[O][Mo+]1(=[O])[O]2.c1ccc([P+](c2ccccc2)(c2ccccc2)c2ccccc2)cc1.c1ccc([P+](c2ccccc2)(c2ccccc2)c2ccccc2)cc1` [PPh4—Mo2O4-EDTA, (PPh4)2[Mo2O4 (EDTA)]·2.5H2O], in data set [1], the “Power of the bee family” value was 102.1 % relative to batch I; the “Prolificity of the queen” value is 107.1 % relative to batch I; the “Quantity of honey at the first harvest” value was 113.3 % relative to batch I; the “Quantity of honey … change versus batch I” value is listed as “+13.3%”. In the data set with bee families, the “Effect on queens and bee families” value is “stimulating the oogenesis functions of the queens, increasing the amount of larvae, improving the quantitative development of the bee families and increasing productivity thereof”.
